The test system of test [1] is CCGCGCC (GC-rich) DNA duplex (SEQ ID NO: 6). The test is described as follows: SPA (scintillation proximity) direct binding assay, G/C-rich indicator duplex. The text has this: This technology can be applied to studies of ligand binding as disclosed herein. Example 13, below, describes the use of the assay in a high throughput screening method, using the SPA detection system. In this example, the first oligonucleotide is labeled with biotin, and is then tightly bound to streptavidin-coated SPA beads via the strong biotin/streptavidin interaction. These beads are impregnated with scintillant. The second oligonucleotide is labeled with a weak β-emitter, such as ^3H or ^33P. The radioactive second oligonucleotide is mixed with a solution of the beads under conditions at which the first and second oligonucleotides exist primarily as single strands, as described above. The signal will thus be low, as the oligonucleotides are non-hybridized. When ligand is added, the duplex form is stabilized, and the increased proximity of the radioactive isotope (e.g., ^3H, ^33P) in the second oligonucleotide causes the bead to which the first oligonucleotide is bound to scintillate. A signal thus indicates the presence of an effective binding ligand molecule; test sequences giving higher signals indicate the relative preference for different sequences.
The data in Table II compare raw signal counts from SPA assays using three different oligonucleotides and three concentrations (0, 100, and 500 nM) of the DNA binding drug distamycin. The oligonucleotides used were G/C-rich (CCGCGCC; SEQ ID NO: 6), A/T-rich (CTTTATTATTTT; SEQ ID NO: 2), or mixed sequence (GCGGTATTT; SEQ ID NO: 12) DNA duplexes. One strand of the duplex was synthesized with a 5′-biotin label, the other strand was labeled with ^33P, as described in Example 13.
Indicator oligonucleotides as shown in Table 1 were used in this assay, as shown in Table II and FIGS. 4A-E. One strand of each duplex was labeled with biotin at the 5′-end, and the complementary strand was 3′-labeled with ^33P. […] In the absence of ligand, and under these conditions, the oligonucleotides exist in single-stranded conformation. As a result, the oligonucleotide containing the radioactive label is not in close proximity to the SPA bead, and the light given off by the beads is low, i.e., at background. As a duplex-stabilizing ligand is added, the radioactive ^33P is brought into close proximity to the SPA bead, and the light emitted from the SPA bead increases. Accordingly, each of five known DNA-binding compounds was added in increasing concentrations, and the effect on scintillation count was observed, giving the results shown in FIGS. 4A-E.
(In a scintillation proximity assay essentially only radioactivity close to the scintillant gives light.)

Test [2] deals with G/C rich sequence 5′-CGCGCC-3′ (SEQ ID NO: 7) F/Q indicator pair. The test is described as follows: Fluorescence quenching direct binding assay, G/C rich DNA. The settings on record: change in fluorescence similar to single-stranded controls. As for the experimental part:
(§1) The specific examples described in this section employ fluorescence quenching as the detection system. In these examples, because conditions are adjusted to maintain the oligonucleotides in single-stranded form in the absence of the ligand, the assay starts with the system at a high or maximum level of fluorescence, and fluorescence generally decreases, depending on binding affinity, as the ligand is added.
(§2) In the Figure legends, RNA oligonucleotides are denoted by an “r” at the beginning of the sequence, and single stranded controls by “ss” at the end of the sequence. These single stranded sequence, are used alone in control experiments, which thus employ only an “F” strand and no complementary quenching strand. Any quenching of fluorescence that is not due to hybridization can thus be acounted for. Maximum quenching expected on complete hybridization of these oligonucleotides is 85-90%; therefore some signal remains after complete hybridization. […]
(§3) According to the general method described above, increasing amounts of netropsin or actinomycin, respectively, were added to mixtures of selected F/Q indicator oligonucleotide pairs, whose sequences are shown in the legends of FIGS. 1 and 3. […] The Figures show the level of fluorescence observed, relative to a control having no added drug, for each indicator pair (or single strand) as the level of added drug was increased. […]

For test [3], the system named is RNA 5′-rCUAGAUCUGA-3′ (SEQ ID NO: 23) double stranded RNA probe. The test is described as follows: Fluorescence quenching direct binding assay, RNA. To be noted: change in fluorescence similar to single-stranded controls. As for the experimental part:
as §1
In the Figure legends, RNA oligonucleotides are denoted by an “r” at the beginning of the sequence, and single stranded controls by “ss” at the end of the sequence. These single stranded sequence, are used alone in control experiments, which thus employ only an “F” strand and no complementary quenching strand. Any quenching of fluorescence that is not due to hybridization can thus be acounted for. Maximum quenching expected on complete hybridization of these oligonucleotides is 85-90%; therefore some signal remains after complete hybridization. The signal is plotted so that it is normalized to the control signal in the absence of ligand.
Netropsin has been shown in previous studies to bind preferentially to A/T rich regions of DNA. […] Netropsin also binds well to the sequence 5′-GCGGTATTT-3′ (SEQ ID NO: 12), which is a useful “indicator” probe (as discussed below), having both C/G and A/T rich sequences. […]

The test system of test [4] is 5′-GCGGTATTT-3′ (SEQ ID NO: 12) F/Q indicator pair. The test is described as follows: Fluorescence quenching direct binding assay, mixed DNA. The settings on record: increasing netropsin; tRNA added; room temperature. On the procedure: as §1, §2, §3

With `Cn1cc(NC(=O)c2cc(NC(=O)c3cc(NC=O)cn3C)cn2C)cc1C(=O)NCCC(=N)N` [Distamycin, distamycin], the CPM in test [1] (100 nM Distamycin, 10 mM Na+) came out at 699 CPM; in test [1] (100 nM Distamycin, 50 mM Na+), 889 CPM; in test [1] (500 nM Distamycin, 10 mM Na+) it was 744 CPM; in test [1] (500 nM Distamycin, 50 mM Na+), 666 CPM.
For `Cn1cc(NC(=O)c2cc(NC(=O)CN=C(N)N)cn2C)cc1C(=O)NCCC(=N)N` [Netropsin, netropsin], the entries for the “binding (decrease in fluorescence, FIG. 3A)” value in test [2], in test [3] and in test [4] were “does not bind well”, “does not bind well” and “binds well”, respectively.

The values are drawn from US6355428B1, “Nucleic acid ligand interaction assays” (Genelabs Technologies, Inc., priority 1998, dated 2002).
